Earlier results, collected in paper PMC13095657, “A two-step mechanism for sugar translocation” (Nature Structural & Molecular Biology, 2026).

Target: T1, XylE (Escherichia coli, UniProt P0AGF4)
T1 construct: made in house; host or cells: E. coli BL21-Gold (DE3)
Details: XylE WT in liposomes; ref https://www.jbc.org/action/showPdf?pii=S0021-9258%2821%2901315-6; read-out: KM by SSM

T1 sequence (P0AGF4 whole entry): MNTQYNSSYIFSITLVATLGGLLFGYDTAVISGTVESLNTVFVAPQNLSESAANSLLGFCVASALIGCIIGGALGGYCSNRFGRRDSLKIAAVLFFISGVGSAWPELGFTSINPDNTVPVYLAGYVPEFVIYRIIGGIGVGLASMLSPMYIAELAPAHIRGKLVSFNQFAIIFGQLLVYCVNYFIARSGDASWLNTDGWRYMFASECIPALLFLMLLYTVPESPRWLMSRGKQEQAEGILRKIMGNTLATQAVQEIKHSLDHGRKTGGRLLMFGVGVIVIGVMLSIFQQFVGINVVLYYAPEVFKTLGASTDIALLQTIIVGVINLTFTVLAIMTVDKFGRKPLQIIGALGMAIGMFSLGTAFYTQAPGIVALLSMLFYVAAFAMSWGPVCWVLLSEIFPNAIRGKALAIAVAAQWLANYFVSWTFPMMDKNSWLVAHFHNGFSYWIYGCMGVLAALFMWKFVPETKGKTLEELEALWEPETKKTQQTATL

## OC1OC[C@@H](O)[C@H](O)[C@H]1O (stereo partly drawn) [D-xylose]
  Km: 1700 µM
